Laboratory results from paper PMC10999543, “Identification of kinase modulators as host-directed therapeutics against intracellular methicillin-resistant Staphylococcus aureus” (Frontiers in Cellular and Infection Microbiology, 2024).
Where two headings read alike, the source gives them in different places.

Key:
[1] = tested on: intracellular MRSA in MCF7 cells; test: Gentamicin protection assay with CFU count in MRSA-infected MCF7 cells; assay type: cell-based, Staphylococcus aureus; details: 10 µM, n=7
Procedure: (§1) The cells were resuspended in cell culture medium without antibiotics, seeded with 10,000 cells/well into Costar flat-bottom 96-well plates (Corning, Amsterdam, the Netherlands), and were incubated overnight at 37°C/5% CO2. The next day, the bacteria were centrifuged at ≥1800 g for 15 min and resuspended in cold PBS + 5 mM ethylenediaminetetraacetic acid (EDTA). The number of CFUs present in the bacterial suspension was estimated from the optical density at 600 nm (OD600) by assuming 8x10^8 CFUs to be present in a bacterial suspension with OD600 = 1, based on prior titrations. The bacterial suspension was diluted in cell culture medium without antibiotics and added to the cells. Accuracy of the multiplicity of infection (MOI) was validated by plating serial dilutions of the MRSA inoculums on Difco TS agar plates (BD Biosciences). The calculated mean MOI throughout all experiments was 6.8 ± 4.6 (mean ± SD). Infected cells were centrifuged for 3 min at 150 g and incubated for 1 hour at 37°C/5% CO2. Next, the cells were incubated with fresh cell culture medium supplemented with 30 µg/ml gentamicin sulphate (Lonza BioWhittaker, Basel, Switzerland) for 15 min at 37°C/5% CO2 to kill residual extracellular bacteria. Infected cells were incubated overnight at 37°C/5% CO2 in cell culture medium in the presence of kinase inhibitors and 5 µg/ml gentamicin sulphate-containing medium to prevent the growth of extracellular bacteria. The solvent of the compounds, DMSO, was used at equal % v/v as a negative control. For the screen, each compound was tested in triplicate, on separate cell culture plates, resulting in triplicate values for each kinase inhibitor.
(§2) Infected cells were lysed in sterile water + 0.05% UltraPure SDS solution (Invitrogen, ThermoFisher Scientific) to release intracellular bacteria. Bacterial suspensions and lysates of cells infected with MRSA were 5-fold serially diluted and 10-μl drops were plated on square TS agar plates. The plates were left to dry and incubated overnight at 37°C/5% CO2.

[2] = tested on: HeLa, MelJuSo, A549, MCF7 and PMA-differentiated THP-1 cells; test: Light microscopy of cell morphology (cytopathogenic effects); assay type: cell-based, human; details: for changes in cell morphology / cytopathogenic effects by light microscopy: 10 µM, HeLa, MelJuSo, A549, MCF7, THP-1 cells
HeLa cells = assay type: cell-based, human; details: for cytotoxicity / cell viability by LDH-release: 30 µM
Procedure: Before harvesting or lysing the cells of the intracellular infection assays, the supernatant from the cells was collected to quantify LDH release by the cells using the LDH cytotoxicity detection kit (Roche, Merck, Darmstadt, Germany) according to the manufacturer’s instructions. Triton X-100 results in maximum LDH release by permeabilizing the cells and was used as positive control. Quantification was performed with the EnVision plate reader.

intracellular MRSA = assay type: cell-based, Staphylococcus aureus; details: for z-scoreMRSA+ mean: mean of 3 replicates; for z-scoreMRSA+ rep 1 / %GFP+ rep 1: replicate 1; for z-scoreMRSA+ rep 2 / %GFP+ rep 2: replicate 2; for z-scoreMRSA+ rep 3 / %GFP+ rep 3: replicate 3
Outline: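 HeLa cells were infected with GFP-expressing MRSA (mean MOI 6.8) for 1 h, treated with 30 µg/ml gentamicin for 15 min, then incubated overnight at 37°C with kinase inhibitors and 5 µg/ml gentamicin. Flow cytometry gave % GFP-positive cells, with cell count as viability. Hits were z-score ≤ -2 (infection) and ≥ -3 (count) versus DMSO.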

[3] = tested on: intracellular MRSA in MelJuSo cells; test: Gentamicin protection assay with CFU count in MRSA-infected MelJuSo cells; assay type: cell-based, Staphylococcus aureus; details: 10 µM, n=7
Procedure: as §1, §2

zebrafish embryos = test: Zebrafish embryo toxicity test; assay type: in vivo; details: for further signs of toxicity in zebrafish embryos: serial dilutions; for concentration well tolerated in zebrafish embryos: wild type AB/TL
Procedure: All experiments with zebrafish were done on embryos or larvae up to 5 days post fertilization, which have not yet reached the free-feeding stage and which were of the wild type AB/TL line. Fertilized embryos were maintained at 28°C and kept in egg water containing 60 μg/ml Instant Ocean Sea Salt (Sera, Heinsberg Germany). Zebrafish embryos were dechorionated with Dumont #5 forceps (Fine Science Tools Inc., Foster City, CA, USA) at 24 hours post fertilization (hpf) and transferred to 96-wells plates with each well containing a single embryo. Subsequently, the embryos were treated with kinase inhibitors or DMSO at 30 hpf. The health status of the embryos was assessed at 120 hpf. Healthy embryos were given a health score of 5. Health points were withdrawn for each of the following symptoms: no responsiveness to physical stimulation, cranial malformations, oedema or tail malformations. Dead embryos were given a health score of 0.

MRSA = assay type: in vivo, zebrafish; details: for survival rate of MRSA-infected zebrafish embryos: 10 µM, after 4 days, 1000 CFUs MRSA, DMSO 57.5%, uninfected 93.8%
Procedure: Zebrafish embryos were dechorionated at 24 hpf. The OD600 of a log-phase MRSA culture was centrifuged and dissolved in PBS with 2% polyvinylpyrrolidone (Merck) to improve homogeneity of the bacterial suspension. The OD600 was measured and the bacterial suspension was diluted to a final concentration of 10^9 CFUs/ml accordingly. The preparation of injection needles and the equipment used for microinjections have been previously described ([Benard et al., 2012]). At 28 hpf, zebrafish embryos were anesthetized in 200 µg/ml buffered ethyl 3-aminobenzoic acid (Tricaine, Sigma-Aldrich) and injected in the blood island with a bacterial dose of 1 nl containing 1000 CFUs of MRSA. Infected embryos were collected and randomly distributed over 6-wells plates with ten embryos/well. At 30 hpf, the infected embryos were given kinase inhibitors or DMSO as negative control. Survival of the embryos was scored at 48, 72, 96 and 120 hpf.

[4] = PKIS compound screen, Yes/No call
[5] = PKIS compound screen, Yes/No call (effect without cell death)
[6] = PKIS compounds raw data, MRSA-infected HeLa cells
[7] = compound screen, MRSA-infected HeLa cells
[8] = PKIS compound screen raw data, MRSA-infected HeLa cells
[9] = PKIS compound screen, MRSA-infected HeLa cells

| Compound | reduction in bacterial burden (CFU) [1] | changes in cell morphology / cytopathogenic effects by light microscopy [2] | cytotoxicity / cell viability by LDH-release (HeLa cells; MRSA-infected HeLa cells) | effect (intracellular MRSA; [4]) | hit (intracellular MRSA; [5]) | z-scoreMRSA+ mean (intracellular MRSA; PKIS compound screen) | z-scoreMRSA+ rep 1 (intracellular MRSA; PKIS compound screen) | z-scoreMRSA+ rep 2 (intracellular MRSA; PKIS compound screen) | z-scoreMRSA+ rep 3 (intracellular MRSA; PKIS compound screen) | %GFP+ rep 1 (intracellular MRSA; [6]) | %GFP+ rep 2 (intracellular MRSA; [6]) | %GFP+ rep 3 (intracellular MRSA; [6]) | reduction in bacterial burden (CFU) [3] | further signs of toxicity in zebrafish embryos (zebrafish embryos; 120 hpf) | concentration well tolerated in zebrafish embryos (zebrafish embryos; zebrafish, in vivo) | survival rate of MRSA-infected zebrafish embryos (MRSA) | further results |
| --- | --- | --- | --- | --- | --- | --- | --- | --- | --- | --- | --- | --- | --- | --- | --- | --- | --- |
| O=S(=O)(CCNCc1ccc(-c2ccc3ncnc(Nc4ccc(OCc5cccc(F)c5)c(Cl)c4)c3c2)o1)c1ccccc1 [GW633459A] | reductions in CFU counts | not observed | only marginally affected | Yes | Yes | -2.34 | -2.22 | -2.06 | -2.75 | 6.2% | 7.3% | 6.6% | 81% | no further signs of toxicity were observed | ≤ 10 µM | 67.5% |  |
| COc1ccc2[nH]c3c4[nH]c5ccc(OC)cc5c4c4c(c3c2c1)C(=O)NC4=O [GW296115X] | 75% | slight changes in cell morphology | limited cytotoxicity |  |  |  |  |  |  | 2.3% | 1.8% | 2.2% | 88% | no further signs of toxicity were observed | ≤ 10 µM | 77.5% | cell viability of MRSA-infected cells (HeLa cells; HeLa cells, Figure 5K): able to fully restore the loss in cell viability; cell viability of MRSA-infected cells (LDH-release) (HeLa cells; MRSA-infected HeLa cells, 10 µM, Figure 2G): rescued the loss of viability; host cell viability when bafilomycin A1 is added (HeLa cells; MRSA-infected HeLa cells, combined with bafilomycin A1 (100 nM), Figure 5I): reverted; z-scoreMRSA+ (z-score of GFP-positive cells) (intracellular MRSA; 10 µM, 24 h, HeLa cells infected with GFP-expressing MRSA): -3.82; MRSA-infected cells (mean ± SD) (intracellular MRSA; 10 µM, 24 h, HeLa cells, DMSO 14.6% ± 1.0%): 2.1% ± 0.26; effect (intracellular MRSA; Yes/No call from z-scoreMRSA+): Yes; hit (intracellular MRSA; Yes/No: effect without cell death): Yes; z-scoreMRSA+ mean (intracellular MRSA; [7]): -3.82; z-scoreMRSA+ rep 1 (intracellular MRSA; [7]): -3.48; z-scoreMRSA+ rep 2 (intracellular MRSA; [7]): -3.91; z-scoreMRSA+ rep 3 (intracellular MRSA; [7]): -4.06 |
| CC(C)c1nc(-c2cccc(NS(=O)(=O)c3c(F)cccc3F)c2F)c(-c2ccnc(Nc3ccc(N4CCOCC4)nc3)n2)s1 [GSK2008607A] | reductions in CFU counts | cytopathogenic effects were observed | became cytotoxic | No | No and Yes | -0.97 | -1.10 | -1.14 | -0.66 | 21.4% | 20.1% | 23.7% | 81% |  |  |  | cytopathogenic effects in HeLa cells ([2]; 1 µM): cytopathogenic effects were already observed; %GFP+ rep 1 (intracellular MRSA; [8]): 8.4%; %GFP+ rep 2 (intracellular MRSA; [8]): 9.2%; %GFP+ rep 3 (intracellular MRSA; [8]): 10.2%; z-scoreMRSA+ mean (intracellular MRSA; [9]): -2.86; z-scoreMRSA+ rep 1 (intracellular MRSA; [9]): -2.77; z-scoreMRSA+ rep 2 (intracellular MRSA; [9]): -2.79; z-scoreMRSA+ rep 3 (intracellular MRSA; [9]): -3.01; effect (intracellular MRSA; PKIS compound screen, Yes/No call on z-scoreMRSA+): Yes; embryos that died, of 15 (zebrafish embryos; 1 µM, 120 hpf): one; symptoms of surviving zebrafish embryos (zebrafish embryos; 3 and 10 µM, 120 hpf): oedema of the heart sac and yolk, as well as unresponsiveness to physical stimulation; zebrafish embryo mortality (zebrafish embryos; 3 and 10 µM, treated 30 hpf, scored 120 hpf): caused zebrafish embryo mortality; concentrations exhibiting toxicity in zebrafish embryos (zebrafish embryos; zebrafish, in vivo): ≥ 1 µM; embryos that did not respond to physical stimulation, of 15 (zebrafish embryos; zebrafish, in vivo): another; embryos with cranial malformations, of 15 (zebrafish embryos; zebrafish, in vivo): two; embryos with oedema, of 15 (zebrafish embryos; zebrafish, in vivo): three; toxicity in MRSA-infected zebrafish embryos (MRSA; 1 µM): severe compound-related toxicity |
